One experiment concerns the target T1, human CD73 (Homo sapiens, UniProt P21589).
T1 construct: expressed in transfected cells
T1 sequence (P21589 27-549): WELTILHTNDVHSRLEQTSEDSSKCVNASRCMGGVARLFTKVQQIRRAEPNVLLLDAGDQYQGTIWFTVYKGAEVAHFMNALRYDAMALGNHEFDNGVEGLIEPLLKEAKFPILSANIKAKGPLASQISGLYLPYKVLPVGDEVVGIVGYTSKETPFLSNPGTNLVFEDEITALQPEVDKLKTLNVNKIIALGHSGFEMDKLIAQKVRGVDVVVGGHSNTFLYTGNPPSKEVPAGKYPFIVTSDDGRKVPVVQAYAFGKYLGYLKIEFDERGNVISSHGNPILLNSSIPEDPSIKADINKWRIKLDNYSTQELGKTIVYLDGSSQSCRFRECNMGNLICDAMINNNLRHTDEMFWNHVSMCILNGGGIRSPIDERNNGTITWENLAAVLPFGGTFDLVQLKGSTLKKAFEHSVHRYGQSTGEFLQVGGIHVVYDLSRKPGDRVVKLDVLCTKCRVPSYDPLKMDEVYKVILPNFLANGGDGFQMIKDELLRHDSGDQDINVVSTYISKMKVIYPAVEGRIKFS
Description: Inhibitor activity against CD73 in cell based assay (CD73 expressing CHO-K1 cells). Particulars: CHO-K1 cells expressing human CD73, 150 μM AMP, 4 hours of incubation; read-out: CHO-K1 CELL_VARIANT: CD73 IC50. Summed up: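 Stable human CD73 CHO-K1 cells, 1×10^4/well, exposed to an 8-point 1:3 compound series (top 10 μM, 0.2% DMSO) plus 150 μM AMP for 4 h. Remaining AMP in the supernatant was read by CellTiter-Glo 2.0 luminescence with 1 μM ATP after 30 min at room temperature. IC50 came from nonlinear regression of % inhibition against cell and media-only controls.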

Experiment [1] deals with T2, Human CD73 (amino acid residues 27-549) (Homo sapiens, UniProt P21589).
T2 construct: Human CD73 (amino acid residues 27-549); His tag (N); made in house; host or cells: E. coli
T2 sequence (P21589 27-549): T1 sequence (P21589 27-549)
Briefly: CD73 enzymatic assay (luciferase-based indirect assay, CellTiter-Glo). The class given is biochemical. Conditions: 0.4 nM CD73, 150 μM AMP, 1 hour at room temperature. The method in brief: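 N-His human CD73 (27-549) expressed in E. coli, 0.4 nM, incubated with 150 μM AMP and compound in 50 mM HEPES pH 7.4, 0.01% Tween-20, 1 h at RT. Remaining AMP read via CellTiter-Glo luminescence with 1 μM ATP after 30 min; IC50 from nonlinear regression of % inhibition.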
For orientation: In ATP-based viability assays light output follows the ATP content of the culture.

IC50 data for eleven compounds are collected here from patent US12202818B2, “Compounds and methods for CD73 modulation and indications therefor” (Opna Bio SA, priority 2020, dated 2025).

Take `Cc1nn(CC2(F)CNC2)c(C)c1-c1cc(F)nc(O[C@@H]2CCN(c3cn[nH]c(=O)c3Cl)C2)c1` [P-0154, (R)-4-chloro-5-(3-((6-fluoro-4-(1-((3-fluoroazetidin-3-yl)methyl)-3,5-dimethyl-1H-pyrazol-4-yl)pyridin-2-yl)oxy)pyrrolidin-1-yl)pyridazin-3(2H)-one]: the IC50 (on human CD73; in experiment [1]) was 0.001 to 10 µM each time.
For the compound `Cn1ncc(Cl)c1-c1ccnc(O[C@@H]2CCN(c3cn[nH]c(=O)c3Cl)C2)c1` [P-0155, (R)-4-chloro-5-(3-((4-(4-chloro-1-methyl-1H-pyrazol-5-yl)pyridin-2-yl)oxy)pyrrolidin-1-yl)pyridazin-3(2H)-one], the IC50 (on human CD73; in experiment [1]) was 0.001 to 10 µM in each case.
`Cc1nn(C)c(C)c1-c1cnnc(O[C@@H]2CCN(c3cn[nH]c(=O)c3Cl)C2)c1` [P-0156, (R)-4-chloro-5-(3-((5-(1,3,5-trimethyl-1H-pyrazol-4-yl)pyridazin-3-yl)oxy)pyrrolidin-1-yl)pyridazin-3(2H)-one]: the concentration for half-maximal inhibition (IC50) (at human CD73; in experiment [1]) was 0.001 to 10 µM throughout.
For `Cc1nn(C)c(C)c1-c1cc(O[C@@H]2CCN(c3cn[nH]c(=O)c3Cl)C2)cnn1` [P-0157, (R)-4-chloro-5-(3-((6-(1,3,5-trimethyl-1H-pyrazol-4-yl)pyridazin-4-yl)oxy)pyrrolidm-1-yl)pyridazin-3(2H)-one], the IC50 (on human CD73; in experiment [1]) was 0.001 to 10 µM each time.
For `Cc1noc(C)c1-c1cnnc(O[C@@H]2CCN(c3cn[nH]c(=O)c3Cl)C2)c1` [P-0158, (R)-4-chloro-5-(3-((5-(3,5-dimethylisoxazol-4-yl)pyridazin-3-yl)oxy)pyrrolidin-1-yl)pyridazin-3(2H)-one], the half-inhibitory concentration (IC50) (at human CD73; in experiment [1]) was 0.001 to 10 µM throughout.
With `Cc1nn(CCN2CCCC2)c(C)c1-c1cc(F)nc(O[C@@H]2CCN(c3cn[nH]c(=O)c3Cl)C2)c1` [P-0159, (R)-4-chloro-5-(3-((4-(3,5-dimethyl-1-(2-(pyrrolidin-1-yl)ethyl)-1H-pyrazol-4-yl)-6-fluoropyridin-2-yl)oxy)pyrrolidin-1-yl)pyridazin-3(2H)-one], the concentration for half-maximal inhibition (IC50) (at human CD73; in experiment [1]) was 0.001 to 10 µM each time.
Consider `Cc1nn(CCN2CCOCC2)c(C)c1-c1cc(F)nc(O[C@@H]2CCN(c3cn[nH]c(=O)c3Cl)C2)c1` [P-0160, (R)-4-chloro-5-(3-((4-(3,5-dimethyl-1-(2-morpholinoethyl)-1H-pyrazol-4-yl)-6-fluoropyridin-2-yl)oxy)pyrrolidin-1-yl)pyridazin-3(2H)-one], for which the IC50 (at human CD73; in experiment [1]) was 0.001 to 10 µM throughout.
As for `Cc1nn(CCN(C)C)c(C)c1-c1cc(F)nc(O[C@@H]2CCN(c3cn[nH]c(=O)c3Cl)C2)c1` [P-0161, (R)-4-chloro-5-(3-((4-(1-(2-(dimethylamino)ethyl)-3,5-dimethyl-1H-pyrazol-4-yl)-6-fluoropyridin-2-yl)oxy)pyrrolidin-1-yl)pyridazin-3(2H)-one], the half-inhibitory concentration (IC50) (on human CD73; in experiment [1]) was 0.001 to 10 µM in each case.
Turning to `Cc1noc(C)c1-c1cncc(O[C@@H]2CCN(c3cn[nH]c(=O)c3Cl)C2)c1` [P-0162, (R)-4-chloro-5-(3-((5-(3,5-dimethylisoxazol-4-yl)pyridin-3-yl)oxy)pyrrolidin-1-yl)pyridazin-3(2H)-one], the IC50 (on human CD73; in experiment [1]) was 0.001 to 10 µM in each case.
Consider `O=c1[nH]ncc(N2CC[C@@H](Oc3cncc(O[C@@H]4CCN(c5cn[nH]c(=O)c5Cl)C4)c3)C2)c1Cl` [P-0163, 5,5′-((3R,3′R)-(pyridine-3,5-diylbis(oxy))bis(pyrrolidine-3,1-diyl))bis(4-chloropyridazin-3(2H)-one)], for which the IC50 (on human CD73; in experiment [1]) was 0.001 to 10 µM each time.
Consider `CCCn1nc(C)c(-c2cc(F)nc(O[C@@H]3CCN(c4cn[nH]c(=O)c4)C3)c2)c1C` [P-0164, (R)-5-(3-((4-(3,5-dimethyl-1-propyl-1H-pyrazol-4-yl)-6-fluoropyridin-2-yl)oxy)pyrrolidin-1-yl)pyridazin-3(2H)-one], for which the IC50 (on human CD73; in experiment [1]) was 0.001 to 10 µM throughout.

By IC50 is commonly meant the point on the concentration scale where inhibition reaches its midpoint.
